27 molecules from ChEMBL document CHEMBL3400038, “Synthesis and evaluation of benzosuberone embedded with 1,3,4-oxadiazole, 1,3,4-thiadiazole and 1,2,4-triazole moieties as new potential anti proliferative agents” (2015) can be followed below.

Type in all cases: functional
Assay [1] in a line: Antiproliferative activity against human PANC1 cells after 48 hrs by SRB assay. The following applies: PANC-1, 48 h. On the technique in general: In SRB staining, fixed cells bind dye roughly in proportion to their protein.
Another assay deals with MDA-MB-231. In words: Antiproliferative activity against human MDA-MB-231 cells after 48 hrs by SRB assay. The note with it: MDA-MB-231, 48 h.
A further assay deals with A549. The assay can be described thus: Antiproliferative activity against human A549 cells after 48 hrs by SRB assay. The note with it: A549, 48 h.
Another assay concerns HeLa. The assay can be described thus: Antiproliferative activity against human HeLa cells after 48 hrs by SRB assay.

Take `ClC1=C(c2nnc(-c3ccccc3)o2)CCCc2ccccc21`: the GI50 in assay [1] came out at 675 nM; in the assay with MDA-MB-231, 1970 nM; in the assay with A549, 2270 nM; with HeLa, 3220 nM.
For `Cc1ccc(-c2nnc(C3=C(Cl)c4cc(C)c(C)cc4CCC3)o2)cc1` the same measures were 3880 nM, 1760 nM, 2470 nM and 679 nM.
For `COc1ccc([N+](=O)[O-])c(-c2nnc(C3=C(Cl)c4ccccc4CCC3)o2)c1OC` the same measures were 7230 nM, 8280 nM, 5360 nM and 2830 nM.
Turning to `Cc1cc2c(cc1C)C(Cl)=C(c1nnc(-c3cccc(Cl)c3)o1)CCC2`, the GI50 in assay [1] came to 4570 nM; with MDA-MB-231, 3310 nM; with A549, 1970 nM; with HeLa, 5940 nM.
For `O=[N+]([O-])c1ccc(-c2nnc(C3=C(Cl)c4ccccc4CCC3)o2)cc1` the same measures were 3980 nM, 3280 nM, 2610 nM and 1320 nM.
Consider `Cc1cc2c(cc1C)C(Cl)=C(c1nnc(-c3ccc(F)cc3)o1)CCC2`, for which the GI50 is 520 nM in assay [1], 1400 nM in the assay with MDA-MB-231, 2810 nM in the assay with A549 and 6420 nM in the assay on HeLa.
Regarding `S=c1[nH]nc(C2=C(Cl)c3ccccc3CCC2)o1`, the GI50 was 3430 nM in assay [1], 1010 nM in the assay with MDA-MB-231, 4960 nM in the assay on A549 and 981 nM in the assay with HeLa.
The like results for `COc1ccc([N+](=O)[O-])c(-c2nnc(C3=C(Cl)c4cc(C)c(C)cc4CCC3)o2)c1OC` were, in that order, 957 nM, 1160 nM, 871 nM and 310 nM.
For `Cc1cc2c(cc1C)C(Cl)=C(C(=O)NNC(=S)Nc1ccccc1)CCC2` the same measures were 928 nM, 3140 nM, 759 nM and 471 nM.
With `COc1cc2c(c(OC)c1OC)-c1ccc(OC)c(=O)cc1[C@@H](NC(C)=O)CC2` [COLCHICINE], the GI50 in assay [1] was 10 nM; in the assay on MDA-MB-231, below 10 nM; in the assay on A549 it was 30 nM; with HeLa, 40 nM.
For `Cc1cc2c(cc1C)C(Cl)=C(c1nnc(-c3cccc(I)c3)o1)CCC2` the same measures were 4120 nM, 2670 nM, 2780 nM and 4460 nM.
As to `ClC1=C(c2nnc(Nc3ccccc3)s2)CCCc2ccccc21`, the GI50 in assay [1] is 158 nM; in the assay with MDA-MB-231, 947 nM; with A549, 2350 nM; in the assay with HeLa, 1320 nM.
Turning to `CC(=O)O[C@H]1C(=O)[C@@]2(C)[C@H]([C@H](OC(=O)c3ccccc3)[C@]3(O)C[C@H](OC(=O)[C@H](O)[C@@H](NC(=O)c4ccccc4)c4ccccc4)C(C)=C1C3(C)C)[C@]1(OC(C)=O)CO[C@@H]1C[C@@H]2O` [PACLITAXEL], the GI50 in assay [1] is 12 nM; in the assay on MDA-MB-231, below 10 nM; in the assay with A549, below 10 nM; with HeLa, 20 nM.
Consider `COC(=O)Nc1nc2cc(C(=O)c3cccs3)ccc2[nH]1` [NOCODAZOLE], for which the GI50 was below 10 nM in assay [1], 17 nM with MDA-MB-231, 20 nM with A549 and 15 nM with HeLa.
The like results for `COc1cc(-c2nnc(C3=C(Cl)c4cc(C)c(C)cc4CCC3)o2)cc(OC)c1OC` were, in that order, 1880 nM, 956 nM, 1260 nM and 562 nM.
In the case of `O=C(NNC(=S)Nc1ccccc1)C1=C(Cl)c2ccccc2CCC1`, the GI50 in assay [1] worked out at 5850 nM; in the assay on MDA-MB-231, 2460 nM; in the assay on A549 it was 4880 nM; with HeLa it was 3870 nM.
The like results for `ClC1=C(c2nnc(-c3cccc(I)c3)o2)CCCc2ccccc21` were, in that order, 2370 nM, 4940 nM, 2560 nM and 4100 nM.
In the case of `Cc1cc2c(cc1C)C(Cl)=C(c1nnc(Nc3ccccc3)s1)CCC2`, the GI50 in assay [1] is 3660 nM; with MDA-MB-231 it was 5780 nM; with A549, 4780 nM; in the assay on HeLa it was 4920 nM.
With `Sc1nnc(C2=C(Cl)c3ccccc3CCC2)n1-c1ccccc1`, the GI50 came out at 3510 nM in assay [1], 4930 nM in the assay with MDA-MB-231, 3490 nM with A549 and 5500 nM in the assay on HeLa.
On to `Cc1cc2c(cc1C)C(Cl)=C(c1nnc(-c3ccccc3)o1)CCC2`, for which the GI50 in assay [1] worked out at 4120 nM; in the assay on MDA-MB-231 it was 2760 nM; with A549, 1960 nM; in the assay on HeLa, 4680 nM.
`Cc1cc2c(cc1C)C(Cl)=C(c1nnc(S)n1-c1ccccc1)CCC2`: the GI50 in assay [1] was found to be 2650 nM; in the assay with MDA-MB-231 it was 2640 nM; with A549, 1490 nM; with HeLa, 1160 nM.
On to `Cc1ccc(-c2nnc(C3=C(Cl)c4ccccc4CCC3)o2)cc1`, for which the GI50 in assay [1] came out at 6810 nM; with MDA-MB-231, 1400 nM; in the assay with A549, 3420 nM; in the assay with HeLa it was 79 nM.
As to `COc1ccc(C[C@@H](O)c2cc(OC)c(OC)c(OC)c2)cc1O` [COMBRETASTATIN], the GI50 in assay [1] worked out at 20 nM; with MDA-MB-231 it was 19 nM; in the assay on A549 it was 10 nM; in the assay on HeLa, 10 nM.
As to `Cc1cc2c(cc1C)C(Cl)=C(c1n[nH]c(=S)o1)CCC2`, the GI50 was determined as 2460 nM in assay [1], 918 nM in the assay on MDA-MB-231, 3270 nM in the assay with A549 and 4440 nM in the assay on HeLa.
For `COc1cc(-c2nnc(C3=C(Cl)c4ccccc4CCC3)o2)cc(OC)c1OC` the same measures were 729 nM, 3320 nM, 4570 nM and 1730 nM.
For `Cc1cc2c(cc1C)C(Cl)=C(c1nnc(-c3cccc(C(F)(F)F)c3)o1)CCC2` the same measures were 794 nM, 2460 nM, 1970 nM and 1570 nM.
For `COc1cccc2c1C(=O)c1c(O)c3c(c(O)c1C2=O)C[C@@](O)(C(=O)CO)C[C@@H]3O[C@H]1C[C@H](N)[C@H](O)[C@H](C)O1` [DOXORUBICIN] the same measures were below 10 nM, 20 nM, below 10 nM and below 10 nM.

As a reminder, the GI50 is the concentration giving 50% growth inhibition. A higher GI50 goes with less potent growth inhibition.
